According to PMC12608622, “Novel Ruthenacarborane–NSAID Conjugates” (Molecules, 2025):

Key:
Assay in all cases: fluorescence-based COX inhibitor assay kit
Assay type in all cases: biochemical
COX-1 = molecular target: T1, COX-1 (Ovis aries, UniProt P05979); settings: […] compound
T1 construct: gene PTGS1; construct not described
T1 sequence (P05979 25-600): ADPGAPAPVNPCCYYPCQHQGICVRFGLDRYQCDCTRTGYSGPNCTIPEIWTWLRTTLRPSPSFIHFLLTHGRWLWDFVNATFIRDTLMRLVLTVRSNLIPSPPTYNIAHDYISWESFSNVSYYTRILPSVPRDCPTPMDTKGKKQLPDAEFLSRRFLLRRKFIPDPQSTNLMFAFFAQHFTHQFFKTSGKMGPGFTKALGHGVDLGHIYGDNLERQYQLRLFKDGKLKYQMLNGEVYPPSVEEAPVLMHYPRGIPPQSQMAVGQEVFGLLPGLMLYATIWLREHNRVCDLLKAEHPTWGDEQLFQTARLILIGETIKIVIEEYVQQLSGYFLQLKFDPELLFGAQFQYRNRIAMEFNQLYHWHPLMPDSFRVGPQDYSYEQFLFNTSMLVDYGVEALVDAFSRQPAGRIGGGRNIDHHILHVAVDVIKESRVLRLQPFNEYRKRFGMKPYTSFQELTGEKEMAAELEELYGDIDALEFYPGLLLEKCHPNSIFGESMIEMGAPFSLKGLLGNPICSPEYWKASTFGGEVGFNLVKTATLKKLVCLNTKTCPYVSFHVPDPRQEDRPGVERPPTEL
Excerpt: fluorescence-based COX inhibitor assay kit on COX-1

COX-2 [1] = molecular target: T2, COX-2 (Homo sapiens, UniProt P35354)
T2 construct: gene PTGS2; construct not described
T2 sequence (P35354 18-604): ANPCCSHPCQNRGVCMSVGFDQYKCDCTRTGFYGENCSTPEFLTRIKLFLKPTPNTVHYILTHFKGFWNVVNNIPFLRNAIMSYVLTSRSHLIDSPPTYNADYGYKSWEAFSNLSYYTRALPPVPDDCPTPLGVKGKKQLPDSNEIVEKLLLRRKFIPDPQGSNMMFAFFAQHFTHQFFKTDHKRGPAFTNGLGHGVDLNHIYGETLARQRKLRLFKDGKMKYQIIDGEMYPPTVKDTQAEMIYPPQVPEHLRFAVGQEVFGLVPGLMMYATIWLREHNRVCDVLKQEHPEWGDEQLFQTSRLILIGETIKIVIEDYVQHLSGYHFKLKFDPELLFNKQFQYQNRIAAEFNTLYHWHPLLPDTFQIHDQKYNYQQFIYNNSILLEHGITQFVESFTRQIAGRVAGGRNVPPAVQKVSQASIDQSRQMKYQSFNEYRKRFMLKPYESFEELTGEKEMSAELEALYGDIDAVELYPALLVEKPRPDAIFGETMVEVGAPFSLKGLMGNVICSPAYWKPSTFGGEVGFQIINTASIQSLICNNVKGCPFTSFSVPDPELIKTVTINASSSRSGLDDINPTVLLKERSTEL

COX-2 [2] = molecular target: T2, COX-2; settings: […] compound

Row | Substance | % Inhibition @ 100 μM / COX-1 (COX-1) | further results
1 | [Ru(η^6-p-cymene)-1-{methyl (R/S)-2-[4-(2-fluorobiphenyl-4-yl)propanoic acid ester]-closo-C2B9H10}] [4a] | 33% | –
2 | Cesium 1-(2′-hydroxyethyl)-nido-carborane [2b] | – | IC50 (COX-2 [1]): 84.1 µM
3 | Cesium 1-(1′-hydroxymethyl)-nido-carborane [2a] | – | % Inhibition @ 100 μM / COX-2 (COX-2 [2]): 38%

Further lines, with some results ahead:

Row | % Inhibition @ 100 μM / COX-1 (COX-1) | Substance | further results
4 | 30% | [Ru(η^6-p-cymene)-2-{ethyl (R/S)-2-[4-(2-propylphenyl)propanoic acid ester]-closo-C2B9H10}] [6b] | –
5 | 40% | [Ru(η^6-p-cymene)-2-{ethyl (R/S)-2-[4-(2-fluorobiphenyl-4-yl)propanoic acid ester]-closo-C2B9H10}] [4b] | –
